Laboratory results: patent US9274101B2 (BIOLOG, Inc., priority 2001, dated 2016)

Columns and labels:
HepG2 cells = HepG2 cells on flat bottom plastic wells, energy sources at a range of concentrations; type: cell-based, human; details: for activity at 30 µM / activity at 100 µM / activity at 330 µM / activity at 1000 µM / activity at 3300 µM / activity at 10000 µM / activity at 15000 µM / activity at 20000 µM: Homo sapiens, HepG2, 72 h, read-out: HepG2 Cells Responses After 72 hours in Culture and a 4 hour Color Development Period
Protocol: In this Example, methods for testing adherent cells for their ability to use multiple carbon sources are described. The human hepatocellular carcinoma cell line known as HepG2 (Knowles et al., Science, 209:497-499 [1980]) was chosen for this experiment. However, this application is not intended to be limited to the use of HepG2 cells, hepatocytes, carcinoma cells or even human cells.
HepG2 cells were grown in Falcon tissue culture flasks with vented tops. The culture medium used was Minimal Essential medium (MEM, Invitrogen 11095) with 1 g/L glucose, 2 mM L-glutamine, 2.2 g/L sodium bicarbonate, 10 mg/L phenol red, and supplemented with 0.1 mM Nonessential Amino Acids, 1 mM sodium pyruvate, 50 U/mL penicillin, 50 μg/mL streptomycin, and 10% (v/v) heat inactivated fetal bovine serum (HI FBS, Invitrogen 16140). The cells were seeded at 2×10^4/cm^2 and used 3 days after initiation of culture. During all incubations, the cells were kept in an atmosphere of 5% CO2, 90-100% humidity, and 37° C. Cells were harvested by trypsinization for 3 minutes in 0.25% trypsin-1 mM EDTA and resuspended in an equal volume of culture medium. A viable cell count was obtained by trypan blue exclusion and an appropriate volume of the cell suspension (to have 33% more viable cells than was sufficient for the experiment) was placed in a polypropylene centrifuge tube. Cells were pelleted by centrifugation at 350×g for 10 minutes at room temperature, resuspended in Dulbecco's Phosphate Buffered Saline (D-PBS, Invitrogen 14040) and centrifuged a second time. Cells were then resuspended to two-thirds the final volume needed in Dulbecco' ? s Modified Eagle's Medium (DME, Sigma D5030) containing 10% HI FBS and penicillin-streptomycin but without glucose, L-glutamine, sodium pyruvate, and phenol red. An aliquot was counted by trypan blue exclusion and the cell density was adjusted to 1.28×10^5/mL. Cells were plated in 100 μL/well in wells of standard, 96-well plates (4×10^4 cells/cm^2) and allowed to adhere overnight prior to addition of test chemicals.
For assay, the culture medium was aspirated, the wells were washed once with D-PBS and 170 μL of DME were added to each well, followed by 30 μL of the appropriate dilution of each test energy source. Stocks of 133 mM of each test chemical were prepared in tissue culture grade water, sterile filtered, and dilutions were prepared in a master plate so that, upon dilution into a regular 96-well MICROPLATE a total well volume of 200 μL, the final concentrations would be 0.033 to 20 mM. Negative control wells received 30 μL of tissue culture grade water. For each plate containing energy sources and cells, a second, control plate containing only energy sources was prepared. Plates were incubated at 5% CO2, 90-100% humidity, and 37° C. for 48 to 72 hours prior to addition of the MTS/PMS colorometric reagent (10 μL/well). The color formed in each well 4-24 hours after addition of the calorimetric reagent, was measured with a plate reader at 490 nm with a reference wavelength of 650 nm. OD values from the control plate were subtracted from the OD values obtained with cells prior to normalizing the data to % negative control (cells without added energy source).

HL-60 cells = test: Effect of 1 mM chloramphenicol on HL-60 energy utilization; type: cell-based, human; details: negative control without chloramphenicol
Protocol: In this Example, methods for testing antimicrobial-induced modulation in growth of a cell are described. The antimicrobial selected for this Example is chloramphenicol. However, this application is not intended to be limited to the use of chloramphenicol, translation inhibitors or even antibiotics. HL-60 cells were cultured as described in Example 27.
After washing, HL-60 cells were resuspended in DME-R. An aliquot of the cell suspension was counted by trypan blue exclusion and the cell density was adjusted to 6.67×10^5[…]. Fifty μL of DME-R containing 3 mM chloramphenicol were added to each well of the appropriate number of half area, 96-well plates, followed by 25 μL of the appropriate dilution of each test energy source. Stocks of 133 mM of each test chemical were prepared in tissue culture grade water, sterile filtered, and dilutions were prepared in a master plate so that, upon dilution in a total volume of 150 μL, the final concentrations would be 0.033 to 20 mM. Negative control wells received 25 μL of tissue culture grade water. The cells were plated at a volume of 75 μL/well, giving a final cell density of 5×10^4/well. For each plate containing energy sources and cells, a second, control plate containing only energy sources was prepared. Plates were incubated at 5% CO2, 90-100% humidity, and 37° C. for 24 hours prior to addition of the MTS/MPMS colorimetric reagent (7.5 μL/well). The color formed in each well 24 hours after addition of the colorimetric reagent, was measured with a plate reader at 490 nm with a reference wavelength of 650 nm. OD values from the control plate were subtracted from the OD values obtained with cells prior to normalizing the data to % negative control.
Data shown in Table 25 are expressed as percent negative control without chloramphenicol. […] Chloramphenicol clearly has a different effect on the cells than citrate shown in Example 33.

[1] = energy source 0.03 mM with 1 mM chloramphenicol
[2] = energy source 0.10 mM with 1 mM chloramphenicol
[3] = energy source 0.33 mM with 1 mM chloramphenicol
[4] = energy source 1.00 mM with 1 mM chloramphenicol
[5] = energy source 3.3 mM with 1 mM chloramphenicol
[6] = energy source 10 mM with 1 mM chloramphenicol
[7] = energy source 15 mM with 1 mM chloramphenicol
[8] = energy source 20 mM with 1 mM chloramphenicol

N[C@@H](Cc1c[nH]cn1)C(=O)O [L-histidine]
activity at 30 µM (HepG2 cells; Conc. 0.03 mM): 125%
activity at 100 µM (HepG2 cells; Conc. 0.10 mM): 142%
activity at 330 µM (HepG2 cells; Conc. 0.33 mM): 173%
activity at 1000 µM (HepG2 cells; Conc. 1.00 mM): 148%
activity at 3300 µM (HepG2 cells; Conc. 3.3 mM): 180%
activity at 10000 µM (HepG2 cells; Conc. 10 mM): 210%
activity at 15000 µM (HepG2 cells; Conc. 15 mM): 195%
activity at 20000 µM (HepG2 cells; Conc. 20 mM): 72.1%
Effect of 1 mM chloramphenicol on HL-60 Energy Utilization (HL-60 cells; [1]): 6.9 % of negative control
Effect of 1 mM chloramphenicol on HL-60 Energy Utilization (HL-60 cells; [2]): 4.3 % of negative control
Effect of 1 mM chloramphenicol on HL-60 Energy Utilization (HL-60 cells; [3]): 7.3 % of negative control
Effect of 1 mM chloramphenicol on HL-60 Energy Utilization (HL-60 cells; [4]): 7.2 % of negative control
Effect of 1 mM chloramphenicol on HL-60 Energy Utilization (HL-60 cells; [5]): 13.9 % of negative control
Effect of 1 mM chloramphenicol on HL-60 Energy Utilization (HL-60 cells; [6]): 19.1 % of negative control
Effect of 1 mM chloramphenicol on HL-60 Energy Utilization (HL-60 cells; [7]): 13.1 % of negative control
Effect of 1 mM chloramphenicol on HL-60 Energy Utilization (HL-60 cells; [8]): 8.4 % of negative control

CC(C)[C@H](N)C(=O)O [L-valine]
activity at 30 µM (HepG2 cells; Conc. 0.03 mM): 119%
activity at 100 µM (HepG2 cells; Conc. 0.10 mM): 149%
activity at 330 µM (HepG2 cells; Conc. 0.33 mM): 170%
activity at 1000 µM (HepG2 cells; Conc. 1.00 mM): 125%
activity at 3300 µM (HepG2 cells; Conc. 3.3 mM): 176%
activity at 10000 µM (HepG2 cells; Conc. 10 mM): 132%
activity at 15000 µM (HepG2 cells; Conc. 15 mM): 108%
activity at 20000 µM (HepG2 cells; Conc. 20 mM): 87.6%
Effect of 1 mM chloramphenicol on HL-60 Energy Utilization (HL-60 cells; [1]): 6.6 % of negative control
Effect of 1 mM chloramphenicol on HL-60 Energy Utilization (HL-60 cells; [2]): 4.3 % of negative control
Effect of 1 mM chloramphenicol on HL-60 Energy Utilization (HL-60 cells; [3]): 4.0 % of negative control
Effect of 1 mM chloramphenicol on HL-60 Energy Utilization (HL-60 cells; [4]): 3.2 % of negative control
Effect of 1 mM chloramphenicol on HL-60 Energy Utilization (HL-60 cells; [5]): 4.3 % of negative control
Effect of 1 mM chloramphenicol on HL-60 Energy Utilization (HL-60 cells; [6]): 5.5 % of negative control
Effect of 1 mM chloramphenicol on HL-60 Energy Utilization (HL-60 cells; [7]): 2.6 % of negative control
Effect of 1 mM chloramphenicol on HL-60 Energy Utilization (HL-60 cells; [8]): 7.5 % of negative control

Cc1cn([C@H]2C[C@H](O)[C@@H](CO)O2)c(=O)[nH]c1=O [Thymidine]
activity at 30 µM (HepG2 cells; Conc. 0.03 mM): 115%
activity at 100 µM (HepG2 cells; Conc. 0.10 mM): 158%
activity at 330 µM (HepG2 cells; Conc. 0.33 mM): 180%
activity at 1000 µM (HepG2 cells; Conc. 1.00 mM): 150%
activity at 3300 µM (HepG2 cells; Conc. 3.3 mM): 135%
activity at 10000 µM (HepG2 cells; Conc. 10 mM): 114%
activity at 15000 µM (HepG2 cells; Conc. 15 mM): 101%
activity at 20000 µM (HepG2 cells; Conc. 20 mM): 134%
Effect of 1 mM chloramphenicol on HL-60 Energy Utilization (HL-60 cells; [1]): 8.4 % of negative control
Effect of 1 mM chloramphenicol on HL-60 Energy Utilization (HL-60 cells; [2]): 5.8 % of negative control
Effect of 1 mM chloramphenicol on HL-60 Energy Utilization (HL-60 cells; [3]): 6.4 % of negative control
Effect of 1 mM chloramphenicol on HL-60 Energy Utilization (HL-60 cells; [4]): 3.1 % of negative control
Effect of 1 mM chloramphenicol on HL-60 Energy Utilization (HL-60 cells; [5]): 8.8 % of negative control
Effect of 1 mM chloramphenicol on HL-60 Energy Utilization (HL-60 cells; [6]): 5.8 % of negative control
Effect of 1 mM chloramphenicol on HL-60 Energy Utilization (HL-60 cells; [7]): 6.0 % of negative control
Effect of 1 mM chloramphenicol on HL-60 Energy Utilization (HL-60 cells; [8]): 7.3 % of negative control

O=C(O)[C@@H]1C[C@@H](O)CN1 [hydroxy L-proline]
HepG2 Cells Responses After 72 hours in Culture and a 4 hour Color Development Period (HepG2 cells; Conc. 0.03 mM): 97.0 % of negative control
HepG2 Cells Responses After 72 hours in Culture and a 4 hour Color Development Period (HepG2 cells; Conc. 0.10 mM): 139.9 % of negative control
HepG2 Cells Responses After 72 hours in Culture and a 4 hour Color Development Period (HepG2 cells; Conc. 0.33 mM): 162.2 % of negative control
HepG2 Cells Responses After 72 hours in Culture and a 4 hour Color Development Period (HepG2 cells; Conc. 1.00 mM): 140.5 % of negative control
HepG2 Cells Responses After 72 hours in Culture and a 4 hour Color Development Period (HepG2 cells; Conc. 3.3 mM): 126.8 % of negative control
HepG2 Cells Responses After 72 hours in Culture and a 4 hour Color Development Period (HepG2 cells; Conc. 10 mM): 123.1 % of negative control
HepG2 Cells Responses After 72 hours in Culture and a 4 hour Color Development Period (HepG2 cells; Conc. 15 mM): 101.3 % of negative control
HepG2 Cells Responses After 72 hours in Culture and a 4 hour Color Development Period (HepG2 cells; Conc. 20 mM): 62.8 % of negative control
Effect of 1 mM chloramphenicol on HL-60 Energy Utilization (HL-60 cells; [1]): 1.2 % of negative control
Effect of 1 mM chloramphenicol on HL-60 Energy Utilization (HL-60 cells; [2]): −5.0 % of negative control
Effect of 1 mM chloramphenicol on HL-60 Energy Utilization (HL-60 cells; [3]): 2.6 % of negative control
Effect of 1 mM chloramphenicol on HL-60 Energy Utilization (HL-60 cells; [4]): −1.2 % of negative control
Effect of 1 mM chloramphenicol on HL-60 Energy Utilization (HL-60 cells; [5]): 4.4 % of negative control
Effect of 1 mM chloramphenicol on HL-60 Energy Utilization (HL-60 cells; [6]): 1.7 % of negative control
Effect of 1 mM chloramphenicol on HL-60 Energy Utilization (HL-60 cells; [7]): 15.7 % of negative control
Effect of 1 mM chloramphenicol on HL-60 Energy Utilization (HL-60 cells; [8]): 0.6 % of negative control

COC(=O)CCC(=O)O [mono methyl succinate]
activity at 30 µM (HepG2 cells; Conc. 0.03 mM): 144%
activity at 100 µM (HepG2 cells; Conc. 0.10 mM): 161%
activity at 330 µM (HepG2 cells; Conc. 0.33 mM): 179%
activity at 1000 µM (HepG2 cells; Conc. 1.00 mM): 180%
activity at 3300 µM (HepG2 cells; Conc. 3.3 mM): 200%
activity at 10000 µM (HepG2 cells; Conc. 10 mM): 224%
activity at 15000 µM (HepG2 cells; Conc. 15 mM): 357%
activity at 20000 µM (HepG2 cells; Conc. 20 mM): 238%
Effect of 1 mM chloramphenicol on HL-60 Energy Utilization (HL-60 cells; [1]): 10.4 % of negative control
Effect of 1 mM chloramphenicol on HL-60 Energy Utilization (HL-60 cells; [2]): −2.1 % of negative control
Effect of 1 mM chloramphenicol on HL-60 Energy Utilization (HL-60 cells; [3]): 2.6 % of negative control
Effect of 1 mM chloramphenicol on HL-60 Energy Utilization (HL-60 cells; [4]): 1.8 % of negative control
Effect of 1 mM chloramphenicol on HL-60 Energy Utilization (HL-60 cells; [5]): 43.3 % of negative control
Effect of 1 mM chloramphenicol on HL-60 Energy Utilization (HL-60 cells; [6]): 78.1 % of negative control
Effect of 1 mM chloramphenicol on HL-60 Energy Utilization (HL-60 cells; [7]): 47.8 % of negative control
Effect of 1 mM chloramphenicol on HL-60 Energy Utilization (HL-60 cells; [8]): 16.2 % of negative control
